Like-named read-outs stand apart in the source and are kept apart here.
What was measured:
MDA-MB-436 cells = test: Clone formation test of MDA-MB-436 cells; format: cell-based; conditions: 14 days, crystal violet, OD 570 nm, read-out: IC50 (nM), inhibitory activity on MDA-MB-436 cell clones
Method: In this experiment, MDA-MB-436 cells were treated by adding a test compound to detect the ability of cell clone formation. At the beginning of the experiment, MDA-MB-436 cells (ATCC, HTB-130) were added to a 96-well plate (Corning, 3599), with 500 cells per well, and they were subjected to adherent culture overnight. The next day, the compound diluted in a gradient was added, and culture was continued in a […] incubator at 37° C. On the 7th day, the old culture medium was discarded, and the test compound diluted in a gradient was added again. At the 14th day, the 96-well plate was taken out, the culture liquid was discarded, and cell clones were detected by Crystal violet Assay kit. PHERAstar FSX microplate reader (BMG LABTECH) was used for detection of OD at 570 nm. The IC50 value was calculated using GraphPad Prism software.

USP1/UAF1 = USP1/UAF1 (Homo sapiens (Human), UniProt O94782); test: Inhibitory activity on USP1/UAF1 enzymology (ubiquitin rhodamine 110 substrate); format: biochemical; conditions: 0.5 nM USP1/UAF1, 500 nM ubiquitin rhodamine 110
Method: Ubiquitin rhodamine 110 was used as a substrate to detect the activity of the deubiquitinating enzyme USP1/UAF1 after drug treatment. The total test system was 20 μl, and the test buffer comprises 50 mM Tris-HCl (pH 7.8), 0.5 mM EDTA, 0.01% Bovine Serum Albumin, 1 mM DTT, and 0.01% Tween-20. At the beginning of the experiment, 0.5 nM USP1/UAF1 (Bio-Techne, E-568-050) protein was added to a 384-well plate (PerkinElmer, 6008269), and the test compound diluted in a gradient was then added. After incubation at room temperature for 10 min, 500 nM ubiquitin rhodamine 110 (Bio-Techne, U-555-050) was added, and the mixture was incubated at room temperature for 20 min. Enspire™ Multilabel Reader microplate reader (PerkinElmer) was used for detection at excitation light of 485 nm/emission light of 535 nm. The IC50 value was calculated using GraphPad Prism software.

[1] = Pharmacokinetic test in mice; format: in vivo, ICR mice; conditions: plasma, i.g. 10 mg/kg
Method: Experimental animals: Male ICR mice, 25-30 g, were purchased from Chengdu Ddossy Experimental Animals Co., Ltd.
Experimental design: On the day of the experiment, the ICR mice were randomly grouped according to their body weights. The animals were fasted with water available for 12 to 14 h one day before the administration, and were fed 4 h after the administration.
Before and after the administration, blood was taken from the orbit of the animals at specified time points and placed in an EDTAK2 centrifuge tube. The blood was centrifuged at 5000 rpm and 4° C. for 10 min to collect plasma. The blood collection time points for the intravenous group and intragastric administration group were: 0, 5 min, 15 min, 30 min, 1 h, 2 h, 4 h, 7 h, and 24 h. Before analysis and detection, all samples were stored below −60° C. The samples were analyzed quantitatively by LC-MS/MS.

[2] = Pharmacokinetic test in beagle dogs; format: in vivo; conditions: i.g. 5 mg/kg
Method: Experimental objective: a single dose of test compounds was administered to beagle dogs intravenously and intragastrically, and the concentrations of the test compounds in plasma of the beagle dogs were measured to evaluate pharmacokinetic characteristics of the test compounds in the beagle dogs.
Experimental animals: male beagle dogs, about 8-11 kg, were purchased from Beijing Marshall Biotechnology Co., Ltd.
Experimental method: On the day of the experiment, the beagle dogs were randomly grouped according to their body weights. The animals were fasted but with water available for 14 to 18 hours one day before administration, and were fed 4 hours after administration. The administration was performed based on the information in the following table.
Vehicle for intravenous administration: 5% DMA+5% Solutol+90% Saline; Vehicle for intragastric administration: 0.5% MC
(DMA: dimethylacetamide; Solutol: polyethylene glycol-60-hydroxystearate; Saline: physiological saline; MC: Methylcellulose solution)
Sampling: Before and after the administration, blood was taken from the jugular veins or limb veins, and placed in an EDTAK2 centrifuge tube. Centrifugation was performed at 5000 rpm at 4° C. for 10 min, and plasma was collected.
Time points for blood collection: 0, 5 min, 15 min, 30 min, 1 h, 2 h, 4 h, 6 h, 8 h, 10 h, 12 h, 24 h, 48 h, and 72 h. Before analysis and detection, all the samples were stored at −60° C. or lower. The samples were analyzed quantitatively by LC-MS/MS.

[3] = Homo sapiens, MDA-MB-436, 336 h

Chain of USP1/UAF1 (O94782 whole entry): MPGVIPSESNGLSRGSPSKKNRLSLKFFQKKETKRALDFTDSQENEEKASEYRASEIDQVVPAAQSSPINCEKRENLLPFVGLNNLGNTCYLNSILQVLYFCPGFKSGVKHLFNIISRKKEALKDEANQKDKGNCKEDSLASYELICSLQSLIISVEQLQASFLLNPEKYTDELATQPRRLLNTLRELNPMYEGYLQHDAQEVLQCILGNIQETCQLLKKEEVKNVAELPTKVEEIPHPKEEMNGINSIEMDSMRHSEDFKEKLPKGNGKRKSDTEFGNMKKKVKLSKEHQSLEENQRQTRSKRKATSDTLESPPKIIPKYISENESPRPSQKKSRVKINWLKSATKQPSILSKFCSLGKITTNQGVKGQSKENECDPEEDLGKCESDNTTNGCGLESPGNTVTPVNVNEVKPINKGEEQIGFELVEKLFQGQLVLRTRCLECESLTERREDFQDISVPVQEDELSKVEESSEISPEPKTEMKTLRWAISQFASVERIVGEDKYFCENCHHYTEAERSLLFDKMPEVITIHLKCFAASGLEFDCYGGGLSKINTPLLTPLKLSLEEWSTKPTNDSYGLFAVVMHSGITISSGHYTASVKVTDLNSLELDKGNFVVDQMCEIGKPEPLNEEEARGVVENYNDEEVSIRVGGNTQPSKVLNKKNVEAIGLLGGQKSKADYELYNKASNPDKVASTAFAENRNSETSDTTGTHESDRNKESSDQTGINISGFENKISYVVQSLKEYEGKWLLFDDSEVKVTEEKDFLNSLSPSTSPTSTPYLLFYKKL
Chain of USP1/UAF1 (Q8TAF3 whole entry partner): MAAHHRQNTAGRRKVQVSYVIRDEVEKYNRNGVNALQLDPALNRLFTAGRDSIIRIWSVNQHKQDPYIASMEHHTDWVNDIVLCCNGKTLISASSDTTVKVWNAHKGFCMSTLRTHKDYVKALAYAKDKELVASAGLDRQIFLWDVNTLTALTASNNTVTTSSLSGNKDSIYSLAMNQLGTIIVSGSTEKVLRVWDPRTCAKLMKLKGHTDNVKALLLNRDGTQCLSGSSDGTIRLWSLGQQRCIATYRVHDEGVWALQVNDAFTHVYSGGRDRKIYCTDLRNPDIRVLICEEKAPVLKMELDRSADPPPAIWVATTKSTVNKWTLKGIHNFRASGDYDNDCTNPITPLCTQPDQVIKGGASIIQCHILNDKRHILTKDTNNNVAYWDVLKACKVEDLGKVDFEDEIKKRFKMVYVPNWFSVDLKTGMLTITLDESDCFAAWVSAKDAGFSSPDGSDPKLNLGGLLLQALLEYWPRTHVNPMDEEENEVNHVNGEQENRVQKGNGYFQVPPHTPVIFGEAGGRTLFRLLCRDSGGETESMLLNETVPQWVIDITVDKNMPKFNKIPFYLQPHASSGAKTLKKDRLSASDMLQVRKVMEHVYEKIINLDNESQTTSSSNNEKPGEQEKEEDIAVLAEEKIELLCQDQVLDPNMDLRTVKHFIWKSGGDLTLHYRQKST

Compound | IC50 (USP1/UAF1) [nM] | Oral absorption [1] | IC50 (MDA-MB-436 cells; [3]) [nM] | further results
COc1ncnc(C2CC2)c1-c1ncc2cnn(Cc3ccc(-c4nc(C(F)(F)F)cn4C(C)C)cc3)c2c1F [Compound 1] | < 20 | Yes |  | IC50 (MDA-MB-436 cells): < 200 nM
COc1ncnc(C2CC2)c1-c1ncc2cnn(CC34CCC(c5nc(C(F)(F)F)cn5C(C)C)(CC3)CC4)c2c1F [Compound 2] | < 20 | Yes |  | IC50 (MDA-MB-436 cells): < 200 nM; F (%) [2]: 41.2%; AUC0-t ([2]; plasma): 6302 ng·h/mL
CC(C)n1cc(C(F)(F)F)nc1C12CCC(Cn3ncc4cnc(-c5c(OC(F)F)ncnc5C5CC5)c(F)c43)(CC1)CC2 [Compound 4] | < 20 |  |  | IC50 (MDA-MB-436 cells): < 200 nM
C#CCn1cc(C(F)(F)F)nc1C12CCC(Cn3ncc4cnc(-c5c(OC)ncnc5C5CC5)c(F)c43)(CC1)CC2 [Compound 8] |  | Yes |  | 
Fc1c(-c2c(OC(F)F)ncnc2C2CC2)ncc2cnn(CC34CCC(c5nc(C(F)(F)F)cn5CC5CC5)(CC3)CC4)c12 [Compound 10] |  |  | < 200 | 
Fc1c(-c2c(OC(F)F)ncnc2C2CC2)ncc2cnn(Cc3ccc(-c4nc(C(F)(F)F)c5n4CC4(CC4)C5)cc3)c12 [Compound 12] |  | Yes |  | 
Fc1c(-c2c(OC(F)F)ncnc2C2CC2)ncc2cnn(Cc3ccc(-c4nc(C(F)(F)F)c5n4CC(F)(F)C5)cc3)c12 [Compound 14] |  | Yes |  | 
[2H]C([2H])([2H])C([2H])(n1cc(C(F)(F)F)nc1C12CCC(Cn3ncc4cnc(-c5c(OC(F)F)ncnc5C5CC5)c(F)c43)(CC1)CC2)C([2H])([2H])[2H] [Compound 15] |  |  | < 200 | 
C#CCn1cc(C(F)(F)F)nc1-c1ccc(Cn2ncc3cnc(-c4c(OC)ncnc4C4CC4)c(F)c32)cc1 [Compound 16] | < 20 | Yes | < 200 | 
CC(C)n1cc(C(F)(F)F)nc1-c1ccc(Cn2ncc3cnc(-c4c(OC(F)F)ncnc4C4CC4)c(F)c32)cc1 [Compound 20] |  |  | < 200 | 
COc1ncnc(C2CC2)c1-c1ncc2cnn(Cc3ccc(-c4nc(C(F)(F)F)c5n4CC4(CC4)C5)cc3)c2c1F [Compound 21] |  | Yes |  | 
COc1ncnc(C2CC2)c1-c1ncc2cnn(Cc3ccc(-c4nc(C(F)(F)F)c5n4[C@@H](C)CC5)cc3)c2c1F [Compound 22] |  | Yes | < 200 | 
COc1ncnc(C2CC2)c1-c1ncc2cnn(Cc3ccc(-c4nc(C(F)(F)F)cn4C(C)C)cc3)c2n1 [Control compound A, reference compound] |  |  |  | bioavailability ([2]; male, dog, plasma, po): 15.8%; AUC0-t ([2]; male, dog, po, plasma, read-out: AUC0-t): 994 ng·h/mL
